Measured values published in US8614223B2, “Pyrimidine hydroxy amide compounds as protein deacetylase inhibitors and methods of use thereof” (Acetylon Pharmaceuticals, Inc., priority 2010, dated 2013).

Key:
HDAC6 = HDAC6 (Homo sapiens (Human), UniProt Q9UBN7); details: read-out: HDAC6 IC50
HDAC1 = HDAC1 (Homo sapiens (Human), UniProt Q13547); test: HDAC enzyme assay, HDAC1; details: for HDAC1 fold over HDAC6 IC50 (selectivity for HDAC6): ratio HDAC1/HDAC6; for IC50: read-out: HDAC1 IC50
HDAC2 = HDAC2 (Homo sapiens (Human), UniProt Q92769); test: HDAC enzyme assay, HDAC2; details: for HDAC2 fold over HDAC6 IC50 (selectivity for HDAC6): ratio HDAC2/HDAC6; for IC50: read-out: HDAC2 IC50
HDAC3 = HDAC3 (Homo sapiens (Human), UniProt O15379); test: HDAC enzyme assay, HDAC3; details: for HDAC3 fold over HDAC6 IC50 (selectivity for HDAC6): ratio HDAC3/HDAC6; for IC50: read-out: HDAC3 IC50
HDAC3, sequence (O15379 whole entry): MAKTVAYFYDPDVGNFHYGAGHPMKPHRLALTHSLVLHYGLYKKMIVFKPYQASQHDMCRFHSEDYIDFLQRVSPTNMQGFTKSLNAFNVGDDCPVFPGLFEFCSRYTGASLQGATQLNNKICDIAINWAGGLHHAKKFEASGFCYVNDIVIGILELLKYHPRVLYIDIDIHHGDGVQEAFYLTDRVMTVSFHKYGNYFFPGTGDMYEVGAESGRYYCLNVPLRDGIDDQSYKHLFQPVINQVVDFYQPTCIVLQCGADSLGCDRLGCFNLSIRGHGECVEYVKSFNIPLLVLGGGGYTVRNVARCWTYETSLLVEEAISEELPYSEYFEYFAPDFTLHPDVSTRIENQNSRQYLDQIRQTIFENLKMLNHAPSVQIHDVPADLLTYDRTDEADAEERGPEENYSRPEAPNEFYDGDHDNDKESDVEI
HDAC3, sequence (Q9Y618 395-489 partner): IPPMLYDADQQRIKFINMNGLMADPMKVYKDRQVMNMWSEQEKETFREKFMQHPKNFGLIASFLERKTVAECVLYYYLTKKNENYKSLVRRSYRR

HDAC6, sequence (Q9UBN7 whole entry): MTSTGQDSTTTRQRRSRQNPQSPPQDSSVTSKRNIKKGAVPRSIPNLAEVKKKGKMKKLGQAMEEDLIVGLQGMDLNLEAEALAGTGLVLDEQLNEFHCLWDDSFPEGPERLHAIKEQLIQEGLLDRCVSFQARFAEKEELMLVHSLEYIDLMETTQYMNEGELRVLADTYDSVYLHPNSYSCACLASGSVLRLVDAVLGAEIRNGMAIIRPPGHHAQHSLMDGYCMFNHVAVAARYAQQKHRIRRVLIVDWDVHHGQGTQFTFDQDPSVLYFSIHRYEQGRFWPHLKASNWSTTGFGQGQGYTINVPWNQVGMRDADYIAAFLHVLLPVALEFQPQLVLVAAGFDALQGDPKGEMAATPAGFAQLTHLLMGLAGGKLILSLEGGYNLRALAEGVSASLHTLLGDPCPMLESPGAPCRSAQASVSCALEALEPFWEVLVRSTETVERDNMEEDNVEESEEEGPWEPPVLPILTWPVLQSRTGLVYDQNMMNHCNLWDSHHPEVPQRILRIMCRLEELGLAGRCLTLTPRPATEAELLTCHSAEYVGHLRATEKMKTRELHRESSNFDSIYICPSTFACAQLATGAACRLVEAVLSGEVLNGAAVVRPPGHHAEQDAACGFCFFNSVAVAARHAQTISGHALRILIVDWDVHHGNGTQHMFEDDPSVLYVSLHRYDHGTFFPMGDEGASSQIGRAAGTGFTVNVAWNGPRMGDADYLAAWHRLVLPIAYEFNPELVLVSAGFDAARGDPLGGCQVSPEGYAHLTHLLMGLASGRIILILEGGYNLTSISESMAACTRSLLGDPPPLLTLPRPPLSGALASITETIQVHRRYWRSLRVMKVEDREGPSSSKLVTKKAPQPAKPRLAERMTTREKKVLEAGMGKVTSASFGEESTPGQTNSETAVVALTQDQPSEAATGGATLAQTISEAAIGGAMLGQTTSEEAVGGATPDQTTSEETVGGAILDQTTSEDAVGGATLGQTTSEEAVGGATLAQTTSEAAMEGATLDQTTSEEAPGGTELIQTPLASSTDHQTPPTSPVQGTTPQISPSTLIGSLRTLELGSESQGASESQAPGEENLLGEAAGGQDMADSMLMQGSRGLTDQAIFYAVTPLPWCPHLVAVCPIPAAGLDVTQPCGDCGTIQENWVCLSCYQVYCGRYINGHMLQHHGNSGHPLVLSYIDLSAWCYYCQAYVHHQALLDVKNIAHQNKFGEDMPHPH
HDAC1, sequence (Q13547 whole entry): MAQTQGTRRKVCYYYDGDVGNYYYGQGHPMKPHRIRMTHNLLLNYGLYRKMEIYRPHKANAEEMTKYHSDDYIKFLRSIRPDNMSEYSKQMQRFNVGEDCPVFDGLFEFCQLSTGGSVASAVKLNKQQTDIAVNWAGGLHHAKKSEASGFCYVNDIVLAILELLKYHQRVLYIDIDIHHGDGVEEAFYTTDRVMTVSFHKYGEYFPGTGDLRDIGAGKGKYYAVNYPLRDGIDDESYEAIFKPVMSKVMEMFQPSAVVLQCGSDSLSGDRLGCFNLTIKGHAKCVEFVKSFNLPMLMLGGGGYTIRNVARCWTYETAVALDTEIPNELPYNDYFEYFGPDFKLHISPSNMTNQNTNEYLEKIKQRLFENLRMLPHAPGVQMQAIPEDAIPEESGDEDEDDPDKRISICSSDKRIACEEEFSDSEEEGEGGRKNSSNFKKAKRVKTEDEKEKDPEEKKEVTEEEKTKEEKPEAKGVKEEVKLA
HDAC2, sequence (Q92769 whole entry): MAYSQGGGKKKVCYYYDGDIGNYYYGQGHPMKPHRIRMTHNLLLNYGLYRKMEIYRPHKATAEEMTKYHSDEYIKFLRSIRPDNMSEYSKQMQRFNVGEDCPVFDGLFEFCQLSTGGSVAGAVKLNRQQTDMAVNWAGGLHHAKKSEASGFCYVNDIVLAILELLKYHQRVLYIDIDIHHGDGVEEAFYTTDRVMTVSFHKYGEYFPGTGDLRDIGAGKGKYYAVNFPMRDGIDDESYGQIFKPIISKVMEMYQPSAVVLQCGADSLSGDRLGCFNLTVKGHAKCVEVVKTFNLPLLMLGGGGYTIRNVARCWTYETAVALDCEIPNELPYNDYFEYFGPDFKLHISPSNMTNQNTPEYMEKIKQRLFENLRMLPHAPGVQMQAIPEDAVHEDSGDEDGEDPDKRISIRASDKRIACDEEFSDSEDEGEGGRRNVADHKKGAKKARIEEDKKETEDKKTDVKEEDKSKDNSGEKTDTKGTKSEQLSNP

Row | Structure (SMILES) | IC50 (HDAC6) | HDAC1 fold over HDAC6 IC50 (selectivity for HDAC6) (HDAC1) | IC50 (HDAC1) | HDAC2 fold over HDAC6 IC50 (selectivity for HDAC6) (HDAC2) | IC50 (HDAC2) | HDAC3 fold over HDAC6 IC50 (selectivity for HDAC6) (HDAC3) | IC50 (HDAC3)
1 | O=C(NO)c1cnc(NC2(c3cccc(F)c3)CCCC2)nc1 [Compound 151] | 3 nM | (176.6x) | 584 nM | (143.8x) | 476 nM | (414.9x) | 1370 nM
2 | O=C(NO)c1cnc(Nc2ccc(Cl)cc2)nc1 [Compound 6] | 20 nM | (10.1x) | 202 nM | (11.6x) | 231 nM | (13.3x) | 266 nM
3 | COc1ccc(C2(Nc3ncc(C(=O)NO)cn3)CC2)cc1OC [Compound 138] | 8 nM | (6.2x) | 50 nM | (6x) | 49 nM | (13.9x) | 113 nM
4 | O=C(NO)c1cnc(NCc2c(Cl)cccc2Cl)nc1 [Compound 48] | 7 nM | (48.8x) | 363 nM | (80.8x) | 601 nM | (53.9x) | 401 nM
5 | CC(C)(Nc1ncc(C(=O)NO)cn1)c1ccc(Cl)cc1F [Compound 83] | 3 nM | (139.2x) | 447 nM | (140.9x) | 452 nM | (289x) | 928 nM
6 | O=C(NO)c1cnc(NCc2cnccn2)nc1 [Compound 77] | 4 nM | (74x) | 328 nM | (76.9x) | 340 nM | (98.1x) | 434 nM
7 | O=C(NO)c1cnc(NC2(c3ccc(F)cc3)CC2)nc1 [Compound 81] | 3 nM | (18.3x) | 47 nM | (30.2x) | 78 nM | (46.4x) | 120 nM
8 | CC(C)(Nc1ncc(C(=O)NO)cn1)c1cccc(F)c1 [Compound 75] | 3 nM | (374.2x) | 1140 nM | (316.3x) | 966 nM | (616.6x) | 1880 nM
9 | CC(C)(Nc1ncc(C(=O)NO)cn1)c1cc(C(F)(F)F)cc(C(F)(F)F)c1 [Compound 92] | 33 nM | (41.3x) | 1360 nM | (68x) | 2240 nM | (134.4x) | 4420 nM
10 | O=C(NO)c1cnc(NCc2ccccn2)nc1 [Compound 108] | 5 nM | (42.1x) | 219 nM | (60.3x) | 313 nM | (68.3x) | 355 nM
11 | O=C(NO)c1cnc(Nc2ccccc2Cl)nc1 [Compound 7] | 42 nM | (9.9x) | 415 nM | (14.9x) | 629 nM | (14.4x) | 606 nM
12 | O=C(NO)c1cnc(NC2(Cc3ccccc3)CC2)nc1 [Compound 109] | 4 nM | (79.5x) | 324 nM | (94.3x) | 385 nM | (206.7x) | 843 nM
13 | O=C(NO)c1cnc(NC2CCCCC2)nc1 [Compound 103] | 46 nM | (12.6x) | 578 nM | (18.1x) | 832 nM | (23.9x) | 1100 nM
14 | O=C(NO)c1cnc(Nc2c(Cl)cccc2Cl)nc1 [Compound 20] | 864 nM | (12.3x | 10600 nM | (20.1x) | 17300 nM | (18.9x) | 16300 nM
15 | CC(C)(Nc1ncc(C(=O)NO)cn1)c1ccc(C(F)(F)F)cc1 [Compound 74] | 6 nM | (147.5x) | 889 nM | (168.4x) | 1020 nM | (394.2x) | 2380 nM
16 | O=C(NO)c1cnc(NC2(c3ccc(F)cc3Cl)CC2)nc1 [Compound 144] | 3 nM | (7.9x) | 25 nM | (10.8x) | 34 nM | (18.3x) | 58 nM
17 | O=C(NO)c1cnc(NCc2cccnc2)nc1 [Compound 106] | 4 nM | (25.3x) | 92 nM | (36.5x) | 133 nM | (47.7x) | 174 nM
18 | Cc1cc(Nc2ncc(C(=O)NO)cn2)ccn1 [Compound 31] | 10 nM | (19.8x) | 206 nM | (34.7x) | 362 nM | (21.1x) | 221 nM
19 | O=C(NO)c1cnc(Nc2cc(Cl)ccc2Cl)nc1 [Compound 12] | 15 nM | (14.1x) | 212 nM | (30.2x) | 453 nM | (23.5x) | 352 nM
20 | O=C(NO)c1cnc(NC23CC4CC(CC(C4)C2)C3)nc1 [Compound 58] | 9 nM | (60.8x) | 552 nM | (77.2x) | 701 nM | (119.5x) | 1080 nM
21 | O=C(NO)c1cnc(Nc2cc(F)cc(C(F)(F)F)c2)nc1 [Compound 26] | 5 nM | (31.4x) | 159 nM | (68.3x) | 345 nM | (53.4x) | 270 nM
22 | COc1ccccc1CNc1ncc(C(=O)NO)cn1 [Compound 45] | 4 nM | (106.9x) | 377 nM | (148.5x) | 523 nM | (143.4x) | 506 nM
23 | O=C(NO)c1cnc(NCc2ccccc2Cl)nc1 [Compound 33] | 2 nM | (56.4x) | 110 nM | (116.2x) | 226 nM | (86.7x) | 169 nM
24 | O=C(NO)c1cnc(NCc2ccccc2-c2ccccc2)nc1 [Compound 55] | 8 nM | (60.2x) | 460 nM | (76.8x) | 587 nM | (82.6x) | 631 nM
25 | O=C(NO)c1cnc(NC2(c3c(F)cccc3F)CC2)nc1 [Compound 124] | 1 nM | (3.6x) | 5 nM | (3.9x) | 6 nM | (5.9x) | 8 nM
26 | CC(Nc1ncc(C(=O)NO)cn1)c1ccncc1 (stereo not drawn) [Compound 85] | 4 nM | (18.1x) | 67 nM | (26.2x) | 96 nM | (36.9x) | 135 nM
27 | O=C(NO)c1cnc(Nc2cc(Cl)cc(OC(F)(F)F)c2)nc1 [Compound 27] | 7 nM | (63.5x) | 417 nM | (106.6x) | 700 nM | (113.5x) | 745 nM
28 | O=C(NO)c1cnc(Nc2cccc(Cl)c2)nc1 [Compound 17] | 5 nM | (33.5x) | 182 nM | (29.6x) | 161 nM | (36.5x) | 198 nM
29 | O=C(NO)c1cnc(NC(c2ccccc2)c2ccccc2)nc1 [Compound 60] | 2 nM | (53.5x) | 129 nM | (58.9x) | 142 nM | (98.1x) | 237 nM
30 | Cc1ccc(Nc2ncc(C(=O)NO)cn2)cc1 [Compound 4] | 9 nM | (22x) | 195 nM | (32.8x) | 290 nM | (32.9x) | 291 nM
